# Reference: US6043235A, “11β-aryl-17, 17-spirothiolane-substituted steroids” (Research Triangle Institute, priority 1999, dated 2000)
# Tests used:
# [1] = target: T1, Human Progestin Receptor in T47-D Cells (Homo sapiens, UniProt P06401); experiment: Whole cell receptor binding (competition with 3H-R5020) in T-47D human breast carcinoma cells; conditions: for IC50: 50% displacement of 3H-R5020, T-47D cells, overnight incubation; for Relative Binding % Prog.: RBA relative to internal standard progesterone; for Relative Binding % Prog. / Relative Binding % R5020: ratio of concentrations causing 50% displacement, compared in the same assay; for Relative Binding % R5020: RBA relative to reference standard R5020 (promegestone)
# T1 construct: The human breast carcinoma (T-47D) cell line was used to assess RBA for progestin receptor; host or cells: T-47D human breast carcinoma cells
# T1 sequence (P06401 1-933): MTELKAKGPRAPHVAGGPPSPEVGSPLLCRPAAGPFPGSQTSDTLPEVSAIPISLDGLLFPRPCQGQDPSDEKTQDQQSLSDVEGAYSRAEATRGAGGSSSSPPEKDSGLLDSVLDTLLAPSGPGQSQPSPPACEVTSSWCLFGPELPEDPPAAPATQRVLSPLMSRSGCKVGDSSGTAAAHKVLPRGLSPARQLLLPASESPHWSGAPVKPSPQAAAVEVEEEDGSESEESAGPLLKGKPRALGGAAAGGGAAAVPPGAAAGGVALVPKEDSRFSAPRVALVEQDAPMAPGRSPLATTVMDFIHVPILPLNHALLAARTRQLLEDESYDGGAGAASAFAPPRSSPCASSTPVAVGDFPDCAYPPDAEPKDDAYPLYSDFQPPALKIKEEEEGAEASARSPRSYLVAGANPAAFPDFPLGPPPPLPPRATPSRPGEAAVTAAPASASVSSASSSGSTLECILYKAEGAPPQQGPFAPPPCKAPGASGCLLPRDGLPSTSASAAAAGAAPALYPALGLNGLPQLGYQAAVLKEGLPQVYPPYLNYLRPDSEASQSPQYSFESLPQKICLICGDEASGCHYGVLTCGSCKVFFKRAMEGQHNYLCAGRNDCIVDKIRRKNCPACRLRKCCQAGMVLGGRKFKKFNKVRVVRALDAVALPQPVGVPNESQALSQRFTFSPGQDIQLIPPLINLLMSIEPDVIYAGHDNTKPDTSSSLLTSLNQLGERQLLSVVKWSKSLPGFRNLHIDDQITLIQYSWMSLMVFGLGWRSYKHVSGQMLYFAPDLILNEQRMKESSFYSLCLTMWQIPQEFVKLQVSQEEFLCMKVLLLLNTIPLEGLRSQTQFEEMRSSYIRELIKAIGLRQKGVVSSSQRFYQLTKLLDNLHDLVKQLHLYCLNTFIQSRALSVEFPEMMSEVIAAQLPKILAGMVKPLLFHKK
# Experimental: The biological activity of the compounds of this invention was examined by means of whole cell receptor binding studies.
# Receptor Binding. The affinity of the compounds for hormone receptors was determined by standard procedures similar to those that have been described, inter alia, by Wagner et al., Proc. Natl. Acad. Sci., 93, 8739-8744 (1996) for COS-1 cells. The human breast carcinoma (T-47D) cell line was used to assess RBA for progestin receptor. The cell line used was obtained from ATCC (American Type Culture Collection) and stored frozen at -135° C. until a week before the assays were conducted. The cells were thawed and cultured to achieve the desired cell number (5 to 7 days on average). They were maintained at 37° C. with growth media until they were 90-100% confluent, at which time they were recovered from the growth flasks and dispersed into individual wells of a 12-well tissue culture plate at a count of 4×10^5 cells in one mL medium per well. After 24 h the cells adhered to the bottom of the 12-well plates. At this point, the receptor binding assay procedure was initiated by the addition of test or standard compounds with 3H-R5020 (promegestone). After incubation overnight, medium was removed, the cells were washed and solubilized and radioactivity was measured by liquid scintillation spectrometry. Nonspecific binding was determined by incubation with excess of unlabeled R5020 and subtracted from total binding to calculate specific binding. The progesterone binding assay was conducted with several concentrations of the reference standard (promegestone, R-5020) and an internal standard (progesterone). These hormones were allowed to compete with tritiated competitor (3H-promegestone, 3H-R5020) to estimate relative binding. Test steroids were tested at three or more concentrations between 0.01 to 1000 nM. If 50% displacement of the 3H-R5020 from the receptor was not achieved by the unknown, higher or lower concentrations were tested, as needed, to obtain that goal. All compounds were tested in duplicate for at least two assays. The percentage of specifically bound 3H-R5020 for each concentration tested was calculated and binding curves were generated by plotting the percentage of specifically bound 3H-R-5020 versus the concentration of the competitor. The relative binding activity (RBA) of the test compounds, relative to the reference standard (R5020) as well as the internal standard, was determined from the ratio of concentrations causing 50% displacement for each unknown and standard and expressed as a percentage value. These concentrations were obtained by graphical interpolation of the plots.
# human progestin receptor = conditions: % the affinity of progesterone; Smith et al., J. Biol. Chem. 1974; cited from earlier work
Compound,IC50 [1],Relative Binding % Prog. [1],Relative Binding % R5020 [1],"affinity relative to progesterone, binding to human progestin receptor (human progestin receptor)"
CSC1CCC2C3CCC4=CC(=O)CCC4(C)C3CCC12C (stereo not shown) [17-thiomethylandrost-4-en-3-one],,,,25%
"CN(C)c1ccc([C@H]2C[C@@]3(C)[C@@H](CC[C@@]34CCCS4)[C@@H]3CCC4=CC(=O)CCC4=C32)cc1 [Compound 12, 11β-[4-(N,N-Dimethylamino)phenyl]-spiro[estra-4,9-diene-17β,2'-thiolane]-3-one]",2.8 nM,983%,105%,
"CSc1ccc([C@H]2C[C@@]3(C)[C@@H](CC[C@@]34CCCS4)[C@@H]3CCC4=CC(=O)CCC4=C32)cc1 [Compound 14, 11β-[4-(Methylthio)phenyl]-spiro[estra-4,9-diene-17β,2'-thiolane]-3-one]",4.1 nM,651%,49%,
"CN(C)c1ccc([C@H]2C[C@@]3(C)[C@@H](CC[C@@]34CCCS4(=O)=O)[C@@H]3CCC4=CC(=O)CCC4=C32)cc1 [Compound 24, 1',1'-Dioxo-11β-[4-(N,N-dimethylamino)phenyl]-spiro[estra-4,9-diene-17β,2'-thiolane]-3-one]",13 nM,199%,29%,

# Continued, in another order:
IC50 [1],Relative Binding % Prog. [1],Relative Binding % R5020 [1],Compound,"affinity relative to progesterone, binding to human progestin receptor (human progestin receptor)"
3.1 nM,825%,128%,"CN(C)c1ccc([C@H]2C[C@@]3(C)[C@@H](CC[C@@]34CCC[S+]4[O-])[C@@H]3CCC4=CC(=O)CCC4=C32)cc1 (single isomer, unassigned) [Compound 21a, 11β-[4-(N,N-Dimethylamino)phenyl]-1'-oxo-spiro[estr-4,9-diene-17β,2'-thiolane]-3-one]",
6.6 nM,260%,43%,"CN(C)c1ccc([C@H]2C[C@@]3(C)[C@@H](CC[C@@]34CCC[S+]4[O-])[C@@H]3CCC4=CC(=O)CCC4=C32)cc1 (single isomer, unassigned) [Compound 21b, 11β-[4-(N,N-Dimethylamino)phenyl]-1'-oxo-spiro[estr-4,9-diene-17β,2'-thiolane]-3-one]",
183 nM,19%,2%,"CC(=O)c1ccc([C@H]2C[C@@]3(C)[C@@H](CC[C@@]34CCC[S+]4[O-])[C@@H]3CCC4=CC(=O)CCC4=C32)cc1 (single isomer, unassigned) [Compound 22a, 11β-(4-Acetylphenyl)-1'-oxo-spiro[estra-4,9-diene-17β,2'-thiolane]-3-one]",
135 nM,25%,2%,"CC(=O)c1ccc([C@H]2C[C@@]3(C)[C@@H](CC[C@@]34CCC[S+]4[O-])[C@@H]3CCC4=CC(=O)CCC4=C32)cc1 (single isomer, unassigned) [Compound 22b, 11β-(4-Acetylphenyl)-1'-oxo-spiro[estra-4,9-diene-17β,2'-thiolane]-3-one]",
